Data set [1] is described as follows: Rat plasma half-life assay. In kind it is in vitro ADME. The note with it: 37° C., LC-MS, read-out: Rat Plasma T½ (converted). As for the experimental part: (§1) B. Human and Rat Plasma Half-Life Assay
(§2) 50 μL was removed at various times, like at 0, 1, 2, 3, 4, 8, 24, 32, 48, 56, 72 hours, mixed with 5 μL formic acid and 150 μL acetonitrile in a microcentrifuge tube, vertexed, and centrifuged for 10 minutes at 10K rpm. The supernatant was transferred to an injection vial and analyzed by LC-MS. The LC-MS system consisted of an API4000 mass spectrometer with an ESI probe. Positive ion mode and full scan detection were used. HPLC separation was carried out on a Luna 3μ C8 (2), 2×30 mm column with a gradient from 90% A to 90% B in 10 minutes at a flow rate of 0.3 ml/min. Buffer A was 1% formic acid in water and buffer B was 1% formic acid acetonitrile.

The test system of a further data set is Sprague Dawley rats. Put plainly: Determination of in vivo insulin secretion in normal rats. Also noted: species or system rat. As for the experimental part:
D. Determination of In Vivo Insulin Secretion in Normal Rats
Male Sprague Dawley rats with a body weight of approximately 275-300 g were used as experimental subjects. The day prior to the treatment, right atrial cannulae were implanted via the jugular vein under chlorohydrate. Each cannula was filled with 100 u/ml heparin saline and tied. The rats were fasted for approximately 18 hours prior to dosing with the compound or the vehicle (saline/0.25% BSA). The day of the experiment, aliquots of compound were thawed, brought to room temperature and vortexed thoroughly. A careful check was made for any sign of compound coming out of solution. 10 minutes prior to compound/glucose injection, a 500 μl blood sample was withdrawn and replaced with an equal volume of heparinized saline (10 u/ml). At time 0, a 500 μl blood sample was withdrawn through the cannula. Next, either the vehicle or the appropriate dose of the compound was injected into the cannula and pushed in with the glucose (1 g/kg) or vehicle solution. Finally, 500 μl of volume of heparinized saline (10 u/ml) was used to push in the remaining glucose through the cannula. Additional 500 μl blood samples were withdrawn at 2.5, 5, 10, and 20-minute post-glucose dosing; each immediately followed by a bolus, iv injection of 500 μl heparinized saline (10 u/ml) through the cannula. The plasma was collected from the blood samples by centrifugation, and stored at −20° C. until assay for insulin content.
The in vivo effect of the compound of Example 20 was determined in a separate test under the identical experimental conditions as described above, and numerical values of the total insulin secretion for the compound of Example 20 are summarized in Table 4.

The nature of data set [2]: Human plasma half-life assay. In kind it is in vitro ADME. The following applies: 37° C., LC-MS, read-out: Human Plasma T½ (converted). The protocol:
as §1, §2

Data set [3] has as its target T1, human recombinant GIP receptor (Homo sapiens, UniProt P48546).
T1 construct: expressed in transfected cells; host or cells: CHO-K1 clonal cells (membrane preparation)
T1 sequence (P48546 22-466): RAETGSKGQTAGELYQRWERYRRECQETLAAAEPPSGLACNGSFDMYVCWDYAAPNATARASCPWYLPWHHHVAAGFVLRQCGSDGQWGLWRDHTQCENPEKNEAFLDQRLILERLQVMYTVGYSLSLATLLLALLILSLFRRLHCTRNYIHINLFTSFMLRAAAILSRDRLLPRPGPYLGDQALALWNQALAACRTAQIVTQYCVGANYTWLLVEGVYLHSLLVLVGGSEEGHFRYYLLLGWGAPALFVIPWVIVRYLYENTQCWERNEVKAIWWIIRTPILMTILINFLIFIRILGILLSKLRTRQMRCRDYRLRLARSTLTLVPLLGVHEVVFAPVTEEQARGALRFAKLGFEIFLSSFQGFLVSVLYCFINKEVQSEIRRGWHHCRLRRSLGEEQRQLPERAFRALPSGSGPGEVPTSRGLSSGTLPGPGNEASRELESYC
As to the kind of experiment: In vitro hGIP receptor binding assay. As for the experimental part: The final assay volume was 0.5 ml. The incubations were terminated by rapid filtration through GF/C filters (pre-soaked in 0.5% polyethylenimine) using a Brandel filtration manifold. Each tube and filter were then washed three times with 5-ml aliquots of ice-cold buffer.

The mark [4] stands for this setting: Table 3, fasted male Sprague Dawley rats, compound by cannula with glucose 1 g/kg, blood samples to 20 min.

Non-standard residues stand in square brackets, D forms with d. No end group written: not given here. *: point of attachment. Myristoyl = CCCCCCCCCCCCCC(=O)*; Ac6c = NC1(C(=O)O)CCCCC1; Nle = CCCC[C@H](N)C(=O)O; Orn = NCCC[C@H](N)C(=O)O; Ac5c = NC1(C(=O)O)CCCC1; Aib = CC(C)(N)C(=O)O

Take “YAEGTFISDYSI[Aib]MDKIHQQDFVNWLLAQKGKKNDWKHN[Ac5c]TQ-OH [Example 7, (Aib^13, A5c^40)hGIP(1-42)-OH]”: the half-life at 0.1 mg/ml in data set [1] is 1.7 h; in data set [2], 7 h. In the data set on Sprague Dawley rats (setting [4]), the “AUC (total insulin secretion)” value turned out to be 176.90.

For “YAEGTFISDYSI[Aib]MDKIHQQDFVNWLLAQKGKKNDWKHNITQD-NH2 [Example 5, (Aib^13, Asp^43)hGIP(1-43)-NH2]”, the values for the half-life at 0.1 mg/ml in data set [1] and in data set [2] were 1.3 h and 5.5 h, respectively. In addition, in the data set with Sprague Dawley rats (setting [4]), the “AUC (total insulin secretion)” value is 196.17.

On to `CC[C@H](C)[C@H](NC(=O)[C@H](CCCCN)NC(=O)[C@H](CC(=O)O)NC(=O)C1(NC(=O)[C@H](C)NC(=O)[C@@H](NC(=O)C2(NC(=O)[C@H](Cc3ccc(O)cc3)NC(=O)[C@H](CC(=O)O)NC(=O)[C@H](CO)NC(=O)[C@@H](NC(=O)[C@H](Cc3ccccc3)NC(=O)[C@@H](NC(=O)CNC(=O)[C@H](CCC(=O)O)NC(=O)[C@H](C)NC(=O)[C@@H](N)Cc3ccc(O)cc3)[C@@H](C)O)[C@@H](C)CC)CCCC2)[C@@H](C)CC)CCCC1)C(=O)N[C@@H](Cc1c[nH]cn1)C(=O)N[C@@H](CCC(N)=O)C(=O)N[C@@H](CCC(N)=O)C(=O)N[C@@H](CC(=O)O)C(=O)N[C@@H](Cc1ccccc1)C(=O)N[C@H](C(=O)N[C@@H](CC(N)=O)C(=O)N[C@@H](Cc1c[nH]c2ccccc12)C(=O)N[C@@H](CC(C)C)C(=O)N[C@@H](CC(C)C)C(=O)N[C@@H](C)C(=O)N[C@@H](CCC(N)=O)C(=O)N[C@@H](CCCCN)C(=O)NCC(=O)N[C@@H](CCCCN)C(=O)N[C@@H](CCCCN)C(=O)N[C@@H](CC(N)=O)C(=O)N[C@@H](CC(=O)O)C(=O)N[C@@H](Cc1c[nH]c2ccccc12)C(=O)N[C@@H](CCCCN)C(=O)N[C@@H](Cc1c[nH]cn1)C(=O)N[C@@H](CC(N)=O)C(=O)N[C@H](C(=O)N[C@H](C(=O)N[C@@H](CCC(N)=O)C(=O)N[C@@H](Cc1c[nH]cn1)C(=O)O)[C@@H](C)O)[C@@H](C)CC)C(C)C` [Example 20, (A5c^11, 14, His^43)hGIP(1-43)-OH], for which the figures for the half-life at 0.1 mg/ml in data set [1] and in data set [2] were 4.9 h and 7.2 h, respectively. Also, the “AUC (total insulin secretion)” value in the data set with Sprague Dawley rats (Table 4, separate test under identical experimental conditions) was determined as 149.39.

For the molecule `CC[C@H](C)[C@H](NC(=O)[C@H](CCCCN)NC(=O)[C@H](CC(=O)O)NC(=O)[C@H](CCSC)NC(=O)[C@H](C)NC(=O)[C@@H](NC(=O)C1(NC(=O)[C@H](Cc2ccc(O)cc2)NC(=O)[C@H](CC(=O)O)NC(=O)[C@H](CO)NC(=O)[C@@H](NC(=O)[C@H](Cc2ccccc2)NC(=O)[C@@H](NC(=O)CNC(=O)[C@H](CCC(=O)O)NC(=O)[C@H](C)NC(=O)[C@@H](N)Cc2ccc(O)cc2)[C@@H](C)O)[C@@H](C)CC)CCCC1)[C@@H](C)CC)C(=O)N[C@@H](Cc1c[nH]cn1)C(=O)N[C@@H](CCC(N)=O)C(=O)N[C@@H](CCC(N)=O)C(=O)N[C@@H](CC(=O)O)C(=O)N[C@@H](Cc1ccccc1)C(=O)N[C@H](C(=O)N[C@@H](CC(N)=O)C(=O)N[C@@H](Cc1c[nH]c2ccccc12)C(=O)N[C@@H](CC(C)C)C(=O)N[C@@H](CC(C)C)C(=O)N[C@@H](C)C(=O)N[C@@H](CCC(N)=O)C(=O)N[C@@H](CCCCN)C(=O)NCC(=O)N[C@@H](CCCCN)C(=O)N[C@@H](CCCCN)C(=O)N[C@@H](CC(N)=O)C(=O)N[C@@H](CC(=O)O)C(=O)N[C@@H](Cc1c[nH]c2ccccc12)C(=O)N[C@@H](CCCCN)C(=O)N[C@@H](Cc1c[nH]cn1)C(=O)N[C@@H](CC(N)=O)C(=O)N[C@H](C(=O)N[C@H](C(=O)N[C@@H](CCC(N)=O)C(=O)N[C@@H](Cc1c[nH]cn1)C(=O)O)[C@@H](C)O)[C@@H](C)CC)C(C)C` [Example 3, (A5c^11, His^43)hGIP(1-43)-OH], the values for the half-life at 0.1 mg/ml in data set [1] and in data set [2] were 1.9 h and 7 h, respectively. Besides, the “AUC (total insulin secretion)” value in the data set with Sprague Dawley rats (setting [4]) is reported as 269.83.

Turning to “YAEGTFISDY[Ac5c]IAMDKIHQQDFVNWLLAQKGKKNDWKHN[Ac5c]TQ-OH [Example 2, (A5c^11, 40)hGIP(1-42)-OH]”, the values for the half-life at 0.1 mg/ml in data set [1] and in data set [2] were 2.7 h and 14.1 h, respectively. Besides, the “AUC (total insulin secretion)” value with Sprague Dawley rats (setting [4]) is listed as 286.02.

On to “Glucose-dependent insulinotropic polypeptide [GIP, reference compound]”, for which, in the data set on Sprague Dawley rats (setting [4]), the “AUC (total insulin secretion)” value amounted to 114.87.

“YAEGTFISDY[Ac5c]IAMDKIHQQDFVNWLLAQKGKKNDWKHNITQN-OH [Example 4, (A5c^11, Asn^43)hGIP(1-43)-OH]”: the half-life at 0.1 mg/ml in data set [1] was 4.1 h; in data set [2], 7.2 h. In the data set with Sprague Dawley rats (setting [4]), the “AUC (total insulin secretion)” value is listed as 265.11.

As for “YAEGTFISDY[Ac5c]IAMDKIHQQDFVNWLLAQKGKKNDWKHNI[Ac5c]Q-OH [Example 1, (A5c^11, 41)hGIP(1-42)-OH]”, the half-life at 0.1 mg/ml in data set [1] is 2.2 h; in data set [2], 11.4 h. For the same molecule, the “AUC (total insulin secretion)” value in the data set on Sprague Dawley rats (setting [4]) was 304.92.

Regarding “YAEGTFISDYSI[Aib][Nle]DKIHQQDFVNWLLAQKGKKNDWKHN[Ac5c]TQ-OH [Example 6, (Aib^13, Nle^14, A5c^40)hGIP(1-42)-OH]”, the half-life at 0.1 mg/ml in data set [1] is 1.9 h; in data set [2], 7.8 h. Further, in the data set with Sprague Dawley rats (setting [4]), the “AUC (total insulin secretion)” value worked out at 180.31.

With “YAEGTF[Ac6c]SDYSIAMDKIHQQDFVNWLLAQK[Orn](Myristoyl)KKNDWKHNITQ-OH [Example 19, [A6c^7, Orn^31(N—C(O)—(CH2)12—CH3)]hGIP(1-42)-OH]”, in data set [3], the Ki (as a rule, the equilibrium dissociation constant of an inhibitor or competing ligand from its target) was 18 nM. The half-life at 0.1 mg/ml in data set [1] was 54.6 h; in data set [2], 6.3 h.
